Experimental data as given in patent US5776957A, “Nornicotine enantiomers for use as a treatment for dopamine related conditions and disease states” (The University of Kentucky Research Foundation, priority 1996, dated 1998).
Entries after “also recorded” stand apart in the source; their conditions may differ. Like-named read-outs stand apart in the source and are kept apart here.

How the values were obtained:
[1] = drug self-administration paradigm; details: rats
[2] = NIC and metabolites in rat brain after s.c. injection of radiolabelled NIC; type: in vivo
Text: NIC metabolism studies involving HPLRC analysis invariably utilize NIC with a radiolabel (i.e., [^3 H], [^14 C] or [^11 C]) incorporated in the methyl group. However N-demethylated NIC metabolites (norNIC and norCOT) cannot be detected after injection of such radionuclides, since the label is lost in the formation of these metabolites. NIC and four NIC metabolites have recently been detected in rat brain 4 hr after s.c. injection of [2'-^14 C]NIC (FIG. 3, Table I). Three of these metabolites have been identified as COT, norNIC and norCOT. A fourth minor metabolite (Peak B) has not been completely identified but appears to be an N-demethylated metabolite, since it is not detected in the [^3 H-N-methyl]NIC studies.
COT, and therefore, is unlikely to originate from COT N-demethylation. 3-HydroxyCOT and its glucuronide conjugate were not detected as metabolites of either NIC or COT in brain, even though these are major biotransformation products in the periphery (Crooks, 1993).
It appears that NIC metabolites which accumulate with a time course that correlates with the development of behavioral sensitization to NIC have a role in eliciting sensitization to NIC. The inventors have detected NIC, COT, norNIC and norCOT in brain 4 hr following acute s.c. injection of (±)[2'-^14 C]NIC. S(-) [^3 H] -N-methyl]NIC is unsuitable for studying brain metabolism of NIC, since nor-metabolites (i.e., demethylated metabolites) cannot be detected due to [^3 H]-loss during metabolism (Crooks et al., 1995b, AP 7). Thus, commercially available (±)[2'-^14 C]NIC was used to determine NIC metabolites present in brain. This form of radiolabelled NIC provides a metabolically stable [^14 C]-label which allows measurement of all potential NIC metabolites.
A second "metabolite" (Peak A, FIG. 2) was also detected at each time point and most likely results from a combination of metabolic cleavage of the N-methyl group and dissociated-[^3 H], i e, Peak A represents an oxidized 1-carbon unit and indicates the extent of NIC N-demethylation. Note, in our subsequent studies with [2'-^14 C]NIC, Peak A was not observed, which is consistent with our interpretation of the results (Table 1).

[3] = tested on: [3H]DA-preloaded rat striatal slices (nicotinic receptors); experiment: [3H]overflow (DA release) from [3H]DA-preloaded rat striatal slices; type: cell-based
Procedure: In vitro pharmacological effects of NIC are generally investigated using either striatal slices or synaptosome preparations preloaded with [^3 H] DA. NIC-evoked [^3 H]overflow is obtained routinely in the presence of nomifensine (10 μM; a DA uptake inhibitor) and for pargyline (10 μM, a monoamine oxidase inhibitor) in the superfusion buffer, such that [^3 H]overflow represents primarily [^3 H]DA rather than [H]DA-metabolites (Zumstein et al., 1981, Hoffmann and Cubeddu, 1982, Dwoskin and Zahniser, 1986, Rapier et al., 1988), and for this reason, [^3 H]overflow also will be referred to as [^3 H] DA release in the proposal.
The present studies use striatal slices superfused with various concentrations of NIC or norNIC for prolonged periods.
FIG. 4. […] Insets illustrate the response to the low concentration range. […] NIC exposure indicated by the bar under time course. Note: 1-min sample collection period. […] N=4 rats.
Rat striatal slices were depolarized with 10 μM NIC, 20 mM K+or 1 Hz, 60 pulses or 3 Hz, 180 pulses electrical field stimulation. […] N=4.
MEC or DHβE was included in the superfusion buffer for 60 min prior to the addition of NIC, and superfusion continued for 60 min in the presence of NIC+antagonist.

[4] = cited from earlier work

SMILES	self-administration / substitution for amphetamine [1]	level in CNS at 4 hrs post-NIC-injection ([2]; 4 hrs)	Tmax ([2]; in vivo, rat brain, read-out: time of maximum uptake in brain) [min]	absolute [3H]overflow vs 20 mM K+ or 1 Hz, 60 pulses stimulation [3]	evoked [3H]overflow [3]	plateau in [3H]overflow [3] [mM]	plateau in response [3]	time of peak effect [3] [min]	time of return of release to basal levels [3] [min]	cross-sensitization between nicotine and amphetamine [4]	self-administration / substitution for amphetamine ([1]; listed as S-(-)-nornicotine)	self-administration / substitution for amphetamine ([1]; listed as norNIC)	presence as metabolite in brain ([2]; rat brain, after s.c. radiolabelled NIC)	EC50 ([3]; Rattus norvegicus, read-out: EC50 for norNIC stimulated, DHβE-sensitive [3H]overflow) [nM]	evoked [3H]overflow ([3]; concentration-dependent)	plateau in response ([3]; concentration-response curve, 60-min exposure)	release of dopamine from presynaptic terminals ([3]; neuronal tissue)	potency relative to nicotine ([4]; behavioral sensitization)
CN1CCC[C@H]1c1cccnc1 [S(-) nicotine]	responding was established and maintained	only low levels were detected	30 to 60	not significantly different	increase in [^3 H]overflow; also recorded: stereoselective and concentration dependent increase	30	fail to produce a plateau in response	10 to 15	30 to 60	has not been observed	–	–	–	–	–	–	–	–
c1cncc([C@@H]2CCCN2)c1 [S(-) nornicotine, S-(-) nornicotine]	–	–	–	–	–	–	–	–	–	–	self-administered; also recorded: substitutes for amphetamine self administration	reinforcing	present in significant amounts in brain	880 ± 310	increase in [^3 H]overflow; also recorded: stereoselective and concentration dependent increase	not observed at concentrations up to 3 mM; also recorded: fail to produce a plateau in response	stereoselective and receptor-mediated	less potent than nicotine
